{"source": "paper PMC6410080", "about": "(Viruses, 2019)", "key": {"[1]": {"system": "SFV", "assay": "microbe, parasite or virus in culture", "format": "cell-based, Semliki Forest virus", "settings": "for inhibition at 10 µM / pIC50: Semliki Forest virus; for inhibition at 10 µM: M-HeLa, read-out: % inhibition (SFV screen); for % inhibition (SFV screen): 10 µM; for pIC50: HeLa Kyoto"}, "[2]": {"system": "DENV-2", "assay": "DENV-2 infection assay / secondary screen (E protein staining)", "format": "cell-based, dengue virus serotype 2", "settings": "for inhibition at 10 µM: Dengue virus, DENV2, Huh-7, 24 h, read-out: % inhibition (DENV-2 screen)"}, "[3]": {"assay": "in vitro", "settings": "human, % viability (SFV screen)"}, "[4]": {"assay": "in vitro", "settings": "human"}, "[5]": {"system": "HeLa Kyoto cells", "settings": "10 µM"}, "[6]": {"system": "HeLa Kyoto cells", "settings": "human"}, "[7]": {"system": "Huh7 cells", "settings": "10 µM, Huh7, 24 h, compared to DMSO-treated controls"}}, "note": "pIC50: −log10 of the molar value. Structures can show the parent of a compound that is named as a salt. Where two headings read alike, the source gives them in different places.", "data": [{"smiles": "Nc1ccn([C@@H]2O[C@H](CO)[C@@H](O)C2(F)F)c(=O)n1", "note": "[Gemcitabine]", "values": [{"measurement": "inhibition at 10 µM", "setting": "[1]; 7 h", "result": 67, "unit": "%"}, {"measurement": "inhibition at 10 µM", "setting": "[2]", "result": -137, "unit": "%"}, {"measurement": "viability at 10 µM", "setting": "[3]", "result": 102, "unit": "%"}, {"measurement": "viability at 10 µM", "setting": "[4]", "result": 61.8, "unit": "%"}]}, {"smiles": "Nc1ncn([C@@H]2O[C@H](CO)[C@@H](O)[C@H]2O)c(=O)n1", "note": "[5-azacytidine]", "values": [{"measurement": "% inhibition (SFV screen)", "setting": "[1]", "result": 101.05, "unit": "%"}, {"measurement": "inhibition at 10 µM", "setting": "[1]; 7 h", "result": 99.8, "unit": "%"}, {"measurement": "inhibition at 10 µM", "setting": "[2]", "result": 9.67, "unit": "%"}, {"measurement": "% viability (SFV screen)", "setting": "[5]; human", "result": 75.30, "unit": "%"}, {"measurement": "viability at 10 µM", "setting": "[3]", "result": 75.5, "unit": "%"}, {"measurement": "viability at 10 µM", "setting": "[4]", "result": 106, "unit": "%"}]}, {"smiles": "CSc1ccc2c(c1)C(N1CCN(C)CC1)Cc1ccccc1S2", "note": "(centres unmarked) [Methiothepin mesylate]", "values": [{"measurement": "inhibition at 10 µM", "setting": "[1]; 7 h", "result": 84, "unit": "%"}, {"measurement": "viability at 10 µM", "setting": "[3]", "result": 66.6, "unit": "%"}, {"measurement": "viability at 10 µM", "setting": "[4]", "result": 0.1, "unit": "%"}]}, {"smiles": "C1CCC(C(CC2CCCCN2)C2CCCCC2)CC1", "note": "(centres unmarked) [Perhexiline maleate]", "values": [{"measurement": "inhibition at 10 µM", "setting": "[1]; 7 h", "result": 101, "unit": "%"}, {"measurement": "viability at 10 µM", "setting": "[3]", "result": 62.9, "unit": "%"}, {"measurement": "viability at 10 µM", "setting": "[4]", "result": 1.42, "unit": "%"}]}, {"smiles": "CSc1ccc2c(c1)N(CCC1CCCCN1C)c1ccccc1S2", "note": "(centres unmarked) [Thioridazine hydrochloride]", "values": [{"measurement": "inhibition at 10 µM", "setting": "[1]; 7 h", "result": 89.1, "unit": "%"}, {"measurement": "viability at 10 µM", "setting": "[3]", "result": 71.3, "unit": "%"}, {"measurement": "viability at 10 µM", "setting": "[4]", "result": 5.89, "unit": "%"}]}, {"smiles": "CCCCN(CCCC)CCC(O)c1cc2c(Cl)cc(Cl)cc2c2cc(C(F)(F)F)ccc12", "note": "(centres unmarked) [Halofantrine, Halofantrine hydrochloride]", "values": [{"measurement": "pIC50", "setting": "[1]; 7 h, read-out: IC50 SFV", "result": 3.94}, {"measurement": "pIC50", "setting": "[1]; read-out: IC50 SFV (7 h)", "result": "< 4.00"}, {"measurement": "inhibition at 10 µM", "setting": "[1]; 7 h", "result": 102, "unit": "%"}, {"measurement": "inhibition at 10 µM", "setting": "[2]", "result": 83.6, "unit": "%"}, {"measurement": "TC50 SFV (7h)", "setting": "[6]", "result": 290400, "unit": "µM"}, {"measurement": "viability at 10 µM", "setting": "[3]", "result": 96.9, "unit": "%"}, {"measurement": "viability at 10 µM", "setting": "[4]", "result": 89.4, "unit": "%"}]}, {"smiles": "CCN(CC)CCOc1ccc(C(=C(Cl)c2ccccc2)c2ccccc2)cc1", "note": "[Clomiphene, Clomiphene citrate (Z,E)]", "values": [{"measurement": "inhibition at 10 µM", "setting": "[1]; 7 h", "result": 77.8, "unit": "%"}, {"measurement": "inhibition at 10 µM", "setting": "[2]", "result": 99.3, "unit": "%"}, {"measurement": "TC50 SFV (7h)", "setting": "[6]", "result": 27400, "unit": "µM"}, {"measurement": "viability at 10 µM", "setting": "[3]", "result": 97.1, "unit": "%"}, {"measurement": "viability at 10 µM", "setting": "[4]", "result": 41.8, "unit": "%"}]}, {"smiles": "CCOC(=O)C1=C(C)NC(C)=C(C(=O)OCC)C1c1ccccc1/C=C/C(=O)OC(C)(C)C", "note": "[Lacidipine]", "values": [{"measurement": "pIC50", "setting": "[1]; 7 h, read-out: IC50 SFV", "result": 4.63}, {"measurement": "inhibition at 10 µM", "setting": "[1]; 7 h", "result": 79.8, "unit": "%"}, {"measurement": "inhibition at 10 µM", "setting": "[2]", "result": 98, "unit": "%"}, {"measurement": "TC50 SFV (7h)", "setting": "[6]; 7 h", "result": 27700, "unit": "µM"}, {"measurement": "viability at 10 µM", "setting": "[3]", "result": 80.6, "unit": "%"}, {"measurement": "viability at 10 µM", "setting": "[4]", "result": 75.7, "unit": "%"}]}, {"smiles": "C/C=C(/C)C(=O)O[C@H]1C(C)=C2[C@H]([C@@H]1OC(=O)CCCCCCC)[C@@](C)(OC(C)=O)C[C@H](OC(=O)CCC)[C@@]1(O)[C@H]2OC(=O)[C@@]1(C)O", "note": "[Thapsigargin]", "values": [{"measurement": "inhibition at 10 µM", "setting": "[1]; 7 h", "result": 83.4, "unit": "%"}, {"measurement": "inhibition at 10 µM", "setting": "[2]", "result": 98, "unit": "%"}, {"measurement": "viability at 10 µM", "setting": "[3]", "result": 103, "unit": "%"}, {"measurement": "viability at 10 µM", "setting": "[4]", "result": 53.3, "unit": "%"}]}, {"smiles": "COc1ccc(C[C@@H](C)NC[C@H](O)c2ccc(O)c(NC=O)c2)cc1.COc1ccc(C[C@@H](C)NC[C@H](O)c2ccc(O)c(NC=O)c2)cc1.O=C(O)/C=C/C(=O)O", "note": "[Formoterol fumarate]", "values": [{"measurement": "% inhibition (SFV screen)", "setting": "[1]", "result": 86.74, "unit": "%"}, {"measurement": "% inhibition (DENV-2 screen)", "setting": "[2]; 10 µM", "result": -41.42, "unit": "%"}, {"measurement": "% viability (SFV screen)", "setting": "[5]; HeLa Kyoto, 7 h, compared to DMSO-treated controls, LOPAC and Prestwick samples listed separately", "result": 97.47, "unit": "%"}, {"measurement": "% viability (DENV-2 screen)", "setting": "[7]", "result": 102.07, "unit": "%"}]}, {"smiles": "CN1CCN(CCCN2c3ccccc3Sc3ccc(Cl)cc32)CC1", "note": "[Prochloperazine, Prochlorperazine dimaleate]", "values": [{"measurement": "inhibition at 10 µM", "setting": "[1]; 7 h", "result": 73.3, "unit": "%"}, {"measurement": "inhibition at 10 µM", "setting": "[2]", "result": 98.9, "unit": "%"}, {"measurement": "TC50 SFV (7h)", "setting": "[6]", "result": 22700, "unit": "µM"}, {"measurement": "viability at 10 µM", "setting": "[3]", "result": 84, "unit": "%"}, {"measurement": "viability at 10 µM", "setting": "[4]", "result": 46.7, "unit": "%"}]}, {"smiles": "CN[C@@H]1C[C@@H](c2ccc(Cl)c(Cl)c2)c2ccccc21", "note": "[Indatraline hydrochloride]", "values": [{"measurement": "inhibition at 10 µM", "setting": "[1]; 7 h", "result": 72.2, "unit": "%"}, {"measurement": "viability at 10 µM", "setting": "[3]", "result": 76.4, "unit": "%"}, {"measurement": "viability at 10 µM", "setting": "[4]", "result": 1.66, "unit": "%"}]}, {"smiles": "CN1CCN(CCCN2c3ccccc3Sc3ccc(C(F)(F)F)cc32)CC1", "note": "[Trifluoperazine dihydrochloride]", "values": [{"measurement": "inhibition at 10 µM", "setting": "[1]; 7 h", "result": 96.5, "unit": "%"}, {"measurement": "viability at 10 µM", "setting": "[3]", "result": 93.9, "unit": "%"}, {"measurement": "viability at 10 µM", "setting": "[4]", "result": 0.13, "unit": "%"}]}]}
